Test results reported in PubChem BioAssay (NCI).
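Protocol summary: plate cells (96-well), add compound at 5 concentrations, incubate 48 h, interpolate endpoints linearly. Definition used: TGI = concentration required for complete inhibition of growth.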 Where a SMILES comes first, the peptide text is derived from it. The star is where a group is joined. Boc = CC(C)(C)OC(=O)*

What was measured:
Assay in all cases: NCI-60 cell line screen, 48 h
BT-549 breast = system: BT-549 breast
DMS 114 small cell lung = system: DMS 114 small cell lung
DMS 273 small cell lung = system: DMS 273 small cell lung
KM20L2 colon = system: KM20L2 colon
XF 498 CNS = system: XF 498 CNS
HOP-18 NSCLC = system: HOP-18 NSCLC
SNB-78 CNS = system: SNB-78 CNS
M19-MEL melanoma = system: M19-MEL melanoma
LXFL 529 NSCLC = system: LXFL 529 NSCLC
RXF-631 renal = system: RXF-631 renal

Structure (SMILES)	TGI (BT-549 breast)	TGI (DMS 114 small cell lung)	TGI (DMS 273 small cell lung)	TGI (KM20L2 colon)	TGI (SNB-78 CNS)	TGI (M19-MEL melanoma)	TGI (LXFL 529 NSCLC)	further results
O=C(N/C(=C/c1ccc(Cl)cc1)c1nc2ccccc2c(=O)n1Nc1ccc([N+](=O)[O-])cc1[N+](=O)[O-])c1ccccc1	> 100 µM							
COc1ccc(-n2c(=O)n(C)c(=O)n2-c2c(C)c(C)c(C)c(C)c2C)cc1	> 100 µM							
COC(=O)/C(=N\O)C(C(=O)C=C(C)C)C(=O)C(=O)Nc1ccccc1C (centres undefined)		> 100 µM	> 100 µM	> 100 µM	> 100 µM	> 100 µM	> 100 µM	TGI (XF 498 CNS): > 100 µM; TGI (HOP-18 NSCLC): > 100 µM
COc1cc(C2C(Cl)C(=O)N2NC(=O)Cc2ccccc2)ccc1O (centres undefined)		> 100 µM	> 100 µM	> 100 µM	> 100 µM	> 100 µM	> 100 µM	TGI (XF 498 CNS): > 100 µM; TGI (HOP-18 NSCLC): > 100 µM
CC(OCc1ccccc1)C(NC(=O)C1CSSCC(NC(=O)C(Cc2ccccc2)NC(=O)OCc2ccccc2)C(=O)NC(Cc2ccccc2)C(=O)NC(Cc2cn(C=O)c3ccccc23)C(=O)NC(CCCCNC(=O)OCc2ccccc2)C(=O)NC(C(C)OCc2ccccc2)C(=O)N1)C(N)=O (centres undefined)	> 66.5 µM							
Cc1cc(C)c2c(c1)C(=O)C1(C2)Cc2c(ccc(C)c2C)C1=O (centres undefined)	> 100 µM							
O=C(CCc1cccc(O)c1)NCCc1cccc(OCc2ccccc2)c1	32.5 µM							
CC1(C)O[C@@H](CP(c2ccccc2)c2ccccc2)[C@H](CP(c2ccccc2)c2ccccc2)O1	9.02 µM							
CCCCCn1cnc2c1S(=O)(=O)N(C)C(NC(=O)c1ccccc1)=N2		> 100 µM	> 100 µM	> 100 µM	> 100 µM	> 100 µM	> 100 µM	
O=C1C2Nc3ccccc3SC2C(=O)N1c1cccc([N+](=O)[O-])c1 (centres undefined)		> 100 µM	> 100 µM	> 100 µM	> 100 µM	> 100 µM	> 100 µM	TGI (XF 498 CNS): > 100 µM; TGI (RXF-631 renal): > 100 µM
CC1(C)C(=O)C2(C#N)CCC1C2 (centres undefined)	> 100 µM							
COC(=O)c1ccc(NCc2cc(O)ccc2O)cc1O	14.2 µM							
Oc1[nH]c2ccccc2c1N=NC(=S)N1CCCC1	22.8 µM							
CC(=O)NNc1nc(C)c(C(/C=C/c2ccc(NC(C)=O)cc2)=N/NS(=O)(=O)c2ccc(C)cc2)s1	> 100 µM							
N#C/C(=C\c1ccc(O)cc1O)C(N)=O			> 100 µM	> 100 µM	> 100 µM	> 100 µM	> 100 µM	TGI (XF 498 CNS): > 100 µM
O=C1CSC(/C=C/c2ccccc2)N1c1ccc(-n2c(-c3ccccc3)nc3ccccc3c2=O)cc1 (centres undefined)	> 100 µM							
Nc1cnc2c(c1)c(=O)nc1n2CCS1	> 100 µM							
NC(=O)C(=CN1CC(=O)NC1=S)C(N)=O	> 100 µM							
Cc1cc(=O)[nH]c2c3c(ccc12)OC(C)(C)C=C3	> 100 µM							
O=C(NNC(=O)c1ccccc1Cl)c1ccccc1O	> 100 µM							
COc1ccc(/C(Cl)=C/c2ccc(Cl)c(Cl)c2)cc1		43.8 µM	67.5 µM	63.7 µM	72.1 µM	> 100 µM	> 100 µM	TGI (XF 498 CNS): 44.3 µM; TGI (HOP-18 NSCLC): 88.9 µM
Cn1c2c(cc(-c3ccccc3)c1=O)COc1ccccc1-2		36.2 µM	43.8 µM	> 100 µM	> 100 µM	64.2 µM	> 100 µM	TGI (XF 498 CNS): 26.1 µM; TGI (HOP-18 NSCLC): > 100 µM
COc1ccc(C(=O)c2ccc(-n3c4ccccc4c4ccc5c(c43)C(=O)C=CC5=O)cc2)cc1	8.06 µM							

Structure (SMILES)	TGI (BT-549 breast)	TGI (DMS 114 small cell lung)	TGI (DMS 273 small cell lung)	TGI (KM20L2 colon)	TGI (SNB-78 CNS)	TGI (M19-MEL melanoma)	TGI (LXFL 529 NSCLC)	further results
COC(=O)CNC(=O)Nc1cc(N2C(=O)ON3C2C(C)(C)N(O)C3(C)C)ccc1C (centres undefined)	> 100 µM							
CC(C)c1cccc(C(C)C)c1NC1=CC(=O)C(=O)c2ccccc21			> 100 µM	> 100 µM	> 100 µM	43.1 µM	> 100 µM	TGI (HOP-18 NSCLC): > 100 µM; TGI (RXF-631 renal): > 100 µM
Cc1nc(N)sc1C(=O)/C=C/c1ccc([N+](=O)[O-])cc1		> 100 µM	> 100 µM	> 100 µM	> 100 µM	> 100 µM		TGI (HOP-18 NSCLC): > 100 µM
COCC12CC(CC1=O)C1C2ON2c3ccccc3C(=O)C12c1ccccc1 (centres undefined)		> 100 µM	> 100 µM	> 100 µM	> 100 µM		> 100 µM	TGI (XF 498 CNS): > 100 µM; TGI (HOP-18 NSCLC): > 100 µM
CCOC(=O)c1c(N2CCOCC2)[nH]c(=O)c(C(c2ccc(Cl)c([N+](=O)[O-])c2)c2c(O)c(C(=O)OCC)c(N3CCOCC3)[nH]c2=O)c1O	75.1 µM							
Cc1cc2c(=O)[nH]nc(N)c2c(N)n1	> 100 µM							
CC(C)(C)c1cc(C(C)(C)C)c2sc(=S)oc2c1O	23.6 µM							
CC(C)(C)OC(=O)N/N=C(/N)c1ccccc1	> 100 µM							
N#CC(c1ccccc1)N(CCc1ccccc1)C(=O)Oc1ccccc1 (centres undefined)	> 100 µM							
NC(N)=NS(=O)(=O)c1ccc(NNc2c3ccccc3nc3c(C(=O)Nc4ccc(S(N)(=O)=O)cc4)cccc23)cc1	70.2 µM							
COC(=O)c1cc(C)n(NC(=O)OC(C)(C)C)c1C		> 100 µM	> 100 µM	> 100 µM	> 100 µM	> 100 µM	> 100 µM	
C/C(CN1C(=O)c2ccccc2C1=O)=N\NS(=O)(=O)c1ccc(F)cc1		> 100 µM	> 100 µM	> 100 µM	> 100 µM		> 100 µM	TGI (XF 498 CNS): > 100 µM; TGI (HOP-18 NSCLC): > 100 µM
O=C(O)c1cc(N(Cc2ccccc2O)Cc2cc(O)ccc2O)ccc1O	> 100 µM							
CCOC(=O)C(CC(C)C)NC(=O)C(Cc1ccccc1)NC(=O)CNC(=O)OC(C)(C)C (stereo not drawn) (Boc-Gly-Phe-Leu-OEt; configuration not given here)	50.9 µM							
O=C(Nc1cc(Cl)c(Cl)cc1Cl)C(=O)C(C(=O)c1ccc2ccccc2c1)C1OC(=O)c2ccccc21 (centres undefined)		44.1 µM			38.6 µM	53.6 µM	22.6 µM	
O=C1C=C(Nc2ccccc2C(=O)CC(=O)C(=O)Nc2ccc(Cl)c(Cl)c2)c2ccccc2C1=O		66.7 µM			> 100 µM	8.96 µM		
CCCCCC(=O)Cc1cc(OC)cc2c1C(=O)Oc1cc(O)c(C(=O)O)c(CC(=O)CCCCC)c1O2		> 100 µM	> 100 µM	> 100 µM	> 100 µM	69.6 µM	> 100 µM	TGI (XF 498 CNS): > 100 µM; TGI (RXF-631 renal): > 100 µM
CCOC(=O)C(Cc1cn(S(=O)(=O)c2ccc(C)cc2)cn1)P(=O)(OCC)OCC (centres undefined)	> 100 µM							
Cc1cc(C)c(NS(=O)c2cccc([N+](=O)[O-])c2)c(C)c1 (centres undefined)	> 100 µM							
CC1C(=O)C23OC[C@@]1(C)C1(O)CC[C@@H](C)[C@]21CC3=O (some centres undefined)	> 100 µM							
C1=c2ccccc2=C2C(=C(c3ccccc3)C(c3ccccc3)=NN2c2ccccc2)S1		> 100 µM	> 100 µM	> 100 µM	> 100 µM	> 100 µM	> 100 µM	TGI (HOP-18 NSCLC): > 100 µM
COc1ccccc1OC(=O)/C=C/c1ccccc1	> 100 µM							
Cc1ccccc1NC(=O)C(=O)Cc1cnc2ccccc2n1	> 100 µM							

Structure (SMILES)	TGI (BT-549 breast)	TGI (DMS 114 small cell lung)	TGI (DMS 273 small cell lung)	TGI (KM20L2 colon)	TGI (SNB-78 CNS)	TGI (M19-MEL melanoma)	TGI (LXFL 529 NSCLC)	further results
COc1ccc(Nc2nc3ccccc3nc2C(=O)O)cc1	> 100 µM							
CC1OC(OC2C(O[C@@H]3C[C@@H]4CC[C@@H]5[C@H](CC[C@]6(C)[C@@H]7[C@H](C[C@@H]56)O[C@]5(CC[C@@H](C)CO5)[C@H]7C)[C@@]4(C)C[C@H]3O)OC(CO)C(OC3OC(CO)C(O)C(O)C3O)C2O)C(O)C(O)C1O (some centres undefined)	4.44 µM							
CN(CC#N)C(=O)Cc1ccc([N+](=O)[O-])cc1	> 10 µM							
COC1=CC(=O)c2ccccc2C1(C)C1=NC(C)(C)CO1 (centres undefined)		> 100 µM	> 100 µM	> 100 µM		> 100 µM	> 100 µM	TGI (XF 498 CNS): > 100 µM; TGI (HOP-18 NSCLC): > 100 µM; TGI (RXF-631 renal): > 100 µM
COP(=O)(C(/C=C/c1ccccc1)OC(C)=O)[C@@H]1CCCC[C@H]1N(CC(C)(C)C)C(C)=O (some centres undefined)	33 µM							
N#CC(c1ccccc1)(c1ccccc1)[C@@H](c1ccccc1)[C@H](Cc1ccccc1)NS(=O)(=O)c1ccccc1	> 100 µM							
C[N+](C)(Cc1ccc(NC(=O)CCCC(=O)ON2C(=O)CCC2=O)cc1)c1ccccc1			> 100 µM			> 100 µM	> 100 µM	TGI (HOP-18 NSCLC): < 0.01 µM
COc1ccc2c(c1)CC[C@@H]1[C@@H]2CC[C@]2(C)[C@@H](O)/C(=C/c3ccncc3)C[C@@H]12	31.6 µM							
O=c1c2ncn(CCCl)c2n(-c2ccccc2)c(=S)n1-c1ccccc1	> 100 µM							
CNC(=O)OCCN1c2ccccc2Sc2ccccc21	> 100 µM							
NCCc1ccc2c(c1)C(=O)c1c(O)ccc(O)c1C2=O	> 100 µM							
CCOC(=O)CCC(NC(=O)c1ccc(Oc2nc3ccccc3nc2C(=O)OCC)cc1)C(=O)OCC (centres undefined)	> 100 µM							
CN(NC(=O)c1cccs1)C1=NCCN1	> 100 µM							
COc1ccc(C2C(Cl)C(=O)N2NC(=O)c2ccc(N)cc2)cc1OC (centres undefined)	18.3 µM		11.8 µM	27.8 µM	> 100 µM	16.1 µM	3.78 µM	TGI (XF 498 CNS): 2.3 µM
CO[C@H](c1ccccc1)[C@H](C)N(C)c1ccc2ccccc2c1C1=NC(C)(C)CO1		33.7 µM	39.2 µM	27.4 µM		36.6 µM	49.6 µM	TGI (XF 498 CNS): 33.5 µM; TGI (HOP-18 NSCLC): 31.9 µM; TGI (RXF-631 renal): 39.8 µM
O=C(O)Cc1ccc2c(c1O)C(=O)c1c(ccc(CC(=O)O)c1O)C2=O		> 100 µM	> 100 µM	> 100 µM	> 100 µM	> 100 µM	> 100 µM	TGI (XF 498 CNS): > 100 µM; TGI (HOP-18 NSCLC): > 100 µM
CC1=NN(c2ccccc2)C(=O)C1=C1SCCCS1		45.2 µM	> 100 µM	> 100 µM	> 100 µM	> 100 µM	> 100 µM	TGI (XF 498 CNS): 58.6 µM; TGI (HOP-18 NSCLC): > 100 µM
COc1ccc2[nH]c3c(C)c4cnccc4c(C)c3c2c1	> 10 µM							
COc1cccc(/C=C2\C(=O)N(C(=O)Cc3ccccc3)N=C2C)c1		> 100 µM	> 100 µM		> 100 µM	> 100 µM		TGI (XF 498 CNS): > 100 µM; TGI (HOP-18 NSCLC): > 100 µM
Cc1cc(Br)cc(C)c1NC(=O)C(=O)C1C(=O)C(CC2C(=O)c3ccccc3C2=O)C(=O)CC1(C)C (centres undefined)	> 100 µM							
O=S(Cc1cc2c(cc1Br)OCO2)c1ccccc1 (centres undefined)		61.8 µM	> 100 µM	> 100 µM	> 100 µM	> 100 µM	> 100 µM	TGI (HOP-18 NSCLC): > 100 µM
CO[C@@]12CC(=O)/C(=C(O)\C=C\c3ccccc3)C(=O)[C@]1(OC)Cc1ccccc1O2		> 100 µM		49.2 µM	> 100 µM	> 100 µM	> 100 µM	TGI (XF 498 CNS): > 100 µM; TGI (HOP-18 NSCLC): > 100 µM; TGI (RXF-631 renal): > 100 µM
